For one test, the target named is LXR α LBD protein (Homo sapiens (Human), UniProt Q13133). In words: Human LXRα coactivator recruitment FRET assay, agonist mode. Format: biochemical. As to conditions: agonist mode. The method, then:
Two μL of the DMSO solutions were transferred to the plate and 38 μL of 10 nM LXRα-LBD or LXRβ-LBD (2×) were added immediately to the wells. The plate was shaken for 5 min at rt on an orbital micro shaker (DPC MicroMix® 5), after which 40 μL of 200 nM fluorescein-SRC2-3 peptide and 20 nM Terbium-anti-GST-antibody (Cat# PV3550, Life Technologies, Grand Island, N.Y.) solution (4×) were added to all. The plate was sealed and shaken for 2 min at rt, and incubated at rt for 2 h without agitation. […] The delay and window times were set at 100 and 200 microseconds, respectively. […] The percent control vs. compound concentration data were fit into a four-parameter model, and EC50 values were calculated from the fit as the concentrations corresponding to the inflection points on the concentration-response curves.

The target in test [1] is Gal4 DNA binding domain fused to the LBD of LXRα in HEK293 cells (Homo sapiens (Human), UniProt Q13133). Kind of test: LXR luciferase transcriptional reporter gene assay, agonist mode, LXRα. Format: cell-based. As to conditions: for EC50: read-out: Cell LXRα EC50.
Chain of Gal4 DNA binding domain fused to the LBD of LXRα in HEK293 cells (Q13133 209-447): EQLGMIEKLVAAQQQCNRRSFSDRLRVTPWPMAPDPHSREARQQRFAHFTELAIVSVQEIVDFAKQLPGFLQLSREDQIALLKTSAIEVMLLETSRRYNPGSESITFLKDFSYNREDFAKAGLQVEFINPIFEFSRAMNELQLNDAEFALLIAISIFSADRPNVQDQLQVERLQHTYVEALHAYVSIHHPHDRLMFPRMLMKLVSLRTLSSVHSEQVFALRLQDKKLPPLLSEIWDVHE

Where two headings read alike, the source gives them in different places. Some results are limits rather than exact numbers.

Chain of LXR α LBD protein (Q13133 209-447): as above

In the case of `CC(C)[C@@H]1CN(c2ccc(C(N)=O)c(S(C)(=O)=O)c2)CCN1C(=O)OC(C)(C)C` [4-1, tert-butyl (R)-4-(4-carbamoyl-3-(methylsulfonyl)phenyl)-2-isopropylpiperazine-1-carboxylate], at LXR α LBD protein, the EC50 – broadly, the concentration at which the effect is half-maximal – was determined as 14.5 µM and the “FRET LXRα efficacy” value is 68%. In test [1], the “Cell LXRα efficacy” value was 15676 (21) % and the EC50 was determined as 15.7 µM.
Regarding `CC(C)COC(=O)N1CCN(c2cccc(S(C)(=O)=O)c2)CC1c1ccccc1` (stereo not shown) [5-5, isobutyl 4-(3-(methylsulfonyl)phenyl)-2-phenylpiperazine-1-carboxylate], at LXR α LBD protein, the EC50 stood at 2.5 µM and the “FRET LXRα efficacy” value came to 33%. For the same compound, in test [1], the “Cell LXRα efficacy” value is reported as 3049 (6) %. Also, the EC50 in test [1] (agonist mode) was found to be 3.05 µM.
In the case of `CC(C)OC(=O)N1CCN(c2cccc(S(C)(=O)=O)c2)CC1c1ccccc1` (stereo not shown) [5-8, isopropyl 4-(3-(methylsulfonyl)phenyl)-2-phenylpiperazine-1-carboxylate], on LXR α LBD protein, the EC50 came to 19.8 µM and the “FRET LXRα efficacy” value was found to be 41%. Besides, the EC50 in test [1] (agonist mode) was over 20 µM.
In the case of `CC(C)(C)OC(=O)N1CCN(c2cccc(S(C)(=O)=O)c2)C[C@H]1C(C)(C)O` [6-1, tert-butyl (S)-2-(2-hydroxypropan-2-yl)-4-(3-(methylsulfonyl)phenyl)piperazine-1-carboxylate], the figures for the EC50 (on LXR α LBD protein; in test [1]) were over 50 µM and over 20 µM, respectively.
As to `COC(=O)c1cnc(N2CCN(c3cccc(S(C)(=O)=O)c3)C[C@H]2C(C)C)nc1` [7-9, methyl (R)-2-(2-isopropyl-4-(3-(methylsulfonyl)phenyl)piperazin-1-yl)pyrimidine-5-carboxylate], at LXR α LBD protein, the EC50 is 0.48 µM and the “FRET LXRα efficacy” value stood at 57%. The “Cell LXRα efficacy” value in test [1] is 3532 (36) %. Besides, the EC50 in test [1] (agonist mode) came out at 3.53 µM.
`CC(C)(C)C1CN(c2ccc(F)c(S(C)(=O)=O)c2)CCN1c1nccc(C(F)(F)F)n1` (stereo not shown) [7-29, 2-(2-(tert-butyl)-4-(4-fluoro-3-(methylsulfonyl)phenyl)piperazin-1-yl)-4-(trifluoromethyl)pyrimidine]: the results for the EC50 (at LXR α LBD protein; in test [1] (agonist mode)) were 0.161 µM and 0.15 µM, respectively. For the same compound, the “FRET LXRα efficacy” value on LXR α LBD protein is 101%. Further, the “Cell LXRα efficacy” value in test [1] is listed as 150 (92) %.
For `CC(C)[C@@H]1CN(c2ccc(C#N)c(S(C)(=O)=O)c2)CCN1c1ccc(C(F)(F)F)cn1` [7-37, (R)-4-(3-isopropyl-4-(5-(trifluoromethyl)pyridin-2-yl)piperazin-1-yl)-2-(methylsulfonyl)benzonitrile], in that order: 2.64 µM, 1.7 µM, 220% and 1702 (96) %.
In the same order, the values of `CC(C)[C@@H]1CN(c2ccc(C#N)c(S(C)(=O)=O)c2)CCN1c1cccc(C(F)(F)F)n1` [7-38, (R)-4-(3-isopropyl-4-(6-(trifluoromethyl)pyridin-2-yl)piperazin-1-yl)-2-(methylsulfonyl)benzonitrile] are 3.15 µM, 2.96 µM, 204% and 2960 (86) %.
For the compound `CC(C)[C@@H]1CN(c2ccc(C#N)c(S(C)(=O)=O)c2)CCN1c1cc(C(F)(F)F)ccn1` [7-39, (R)-4-(3-isopropyl-4-(4-(trifluoromethyl)pyridin-2-yl)piperazin-1-yl)-2-(methylsulfonyl)benzonitrile], on LXR α LBD protein, the EC50 was 1.43 µM and the “FRET LXRα efficacy” value came out at 191%. Besides, the “Cell LXRα efficacy” value in test [1] is 1502 (80) %. Moreover, the EC50 in test [1] (agonist mode) was 1.5 µM.
`CS(=O)(=O)c1cccc(N2CCN(c3ccc(C(F)(F)F)cn3)[C@@H](c3ccccc3)C2)c1` [7-40, (S)-4-(3-(methylsulfonyl)phenyl)-2-phenyl-1-(5-(trifluoromethyl)pyridin-2-yl)piperazine]: on LXR α LBD protein, it took 45.1 µM to reach a half-maximal effect (EC50) and the “FRET LXRα efficacy” value was determined as 70%. Besides, the EC50 in test [1] (agonist mode) is over 20 µM.
Take `CS(=O)(=O)c1cccc(N2CCN(Cc3ccccc3)C(c3ccccc3)C2)c1` (stereo not shown) [46-4, 1-benzyl-4-(3-(methylsulfonyl)phenyl)-2-phenylpiperazine]: the EC50 on LXR α LBD protein is 0.875 µM; in test [1] (agonist mode), over 20 µM. Moreover, at LXR α LBD protein, the “FRET LXRα efficacy” value worked out at 41%.
For `CS(=O)(=O)c1cccc(N2CCN(Cc3cccc(C(F)(F)F)c3)C(c3ccccc3)C2)c1` (stereo not shown) [46-13, 4-(3-(methylsulfonyl)phenyl)-2-phenyl-1-(3-(trifluoromethyl)benzyl)piperazine], in that order: 1.9 µM, over 20 µM and 28%.
`CS(=O)(=O)c1cccc(N2CCN(Cc3ccc(C(F)(F)F)c(Cl)c3)[C@H](Cc3ccccc3)C2)c1` [46-33, (R)-2-benzyl-1-(3-chloro-4-(trifluoromethyl)benzyl)-4-(3-(methylsulfonyl)phenyl)piperazine]: at LXR α LBD protein, the EC50 was determined as 2.54 µM and the “FRET LXRα efficacy” value is given as 37%. Further, in test [1], the “Cell LXRα efficacy” value is 2354 (44) %. Further, the EC50 in test [1] (agonist mode) came to 2.35 µM.
Turning to `Cc1ccc(CN2CCN(c3cccc(S(C)(=O)=O)c3)CC2c2ccccc2)cn1` (stereo not shown) [46-40, 1-((6-methylpyridin-3-yl)methyl)-4-(3-(methylsulfonyl)phenyl)-2-phenylpiperazine], at LXR α LBD protein, the response was half-maximal at 4.12 µM (EC50) and the “FRET LXRα efficacy” value was found to be 38%. Further, the EC50 in test [1] (agonist mode) was over 20 µM.
Turning to `CC1(c2ccccc2)CN(c2cccc(S(C)(=O)=O)c2)CCN1Cc1ccc(C(F)(F)F)nc1` (stereo not shown) [46-49, 2-methyl-4-(3-(methylsulfonyl)phenyl)-2-phenyl-1-((6-(trifluoromethyl)pyridin-3-yl)methyl)piperazine], at LXR α LBD protein, a half-maximal effect (EC50) was put at 0.264 µM and the “FRET LXRα efficacy” value is 10%. Also, the “Cell LXRα efficacy” value in test [1] is recorded as 3237 (12) %. Moreover, the EC50 in test [1] (agonist mode) is 3.24 µM.
In the same order, the values of `CS(=O)(=O)c1cccc(N2CCN(Cc3ccc(C(F)(F)F)nc3)C(c3ccc(F)cc3)C2)c1` (stereo not shown) [46-51, 2-(4-fluorophenyl)-4-(3-(methylsulfonyl)phenyl)-1-((6-(trifluoromethyl)pyridin-3-yl)methyl)piperazine] are 2.3 µM, 41%, 3658 (17) % and 3.66 µM.
In the same order, the values of `CS(=O)(=O)c1cc(N2CCN(Cc3ccc(C(F)(F)F)nc3)C(c3ccccc3)C2)ccc1F` (stereo not shown) [46-52, 4-(4-fluoro-3-(methylsulfonyl)phenyl)-2-phenyl-1-((6-(trifluoromethyl)pyridin-3-yl)methyl)piperazine] are 5.2 µM, 20%, 11699 (17) % and 11.7 µM.
For the compound `CS(=O)(=O)c1cccc(N2CCN(Cc3ccc(C(F)(F)F)nc3)C(c3ccc(Cl)cc3)C2)c1` (stereo not shown) [46-54, 2-(4-chlorophenyl)-4-(3-(methylsulfonyl)phenyl)-1-((6-(trifluoromethyl)pyridin-3-yl)methyl)piperazine], the “FRET LXRα efficacy” value on LXR α LBD protein is 49%. In test [1] (agonist mode), the EC50 was over 20 µM.
Take `CS(=O)(=O)c1cc(N2CCN(Cc3ccc(C(F)(F)F)nc3)C(c3ccccc3)C2)ccc1C(N)=O` (stereo not shown) [46-58, 2-(methylsulfonyl)-4-(3-phenyl-4-((6-(trifluoromethyl)pyridin-3-yl)methyl)piperazin-1-yl)benzamide]: the figures for the EC50 (on LXR α LBD protein; in test [1] (agonist mode)) were over 50 µM and 6.99 µM, respectively. Also, the “Cell LXRα efficacy” value in test [1] was 6986 (8) %.
With `CS(=O)(=O)c1cccc(N2CCN(Cc3ccc(C(F)(F)F)nc3)C(c3ccccc3Br)C2)c1` (stereo not shown) [46-60, 2-(2-bromophenyl)-4-(3-(methylsulfonyl)phenyl)-1-((6-(trifluoromethyl)pyridin-3-yl)methyl)piperazine], on LXR α LBD protein, the “FRET LXRα efficacy” value worked out at 39%. Also, in test [1], the “Cell LXRα efficacy” value is listed as 4383 (33) %. The EC50 in test [1] (agonist mode) was found to be 4.38 µM.
With `CS(=O)(=O)c1cc(N2CCN(Cc3ccc(C(F)(F)F)c(Cl)c3)C(c3ccccc3)C2)ccc1CO` (stereo not shown) [47-4, (4-(4-(3-chloro-4-(trifluoromethyl)benzyl)-3-phenylpiperazin-1-yl)-2-(methylsulfonyl)phenyl)methanol], at LXR α LBD protein, the EC50 is 0.224 µM and the “FRET LXRα efficacy” value was 109%. The “Cell LXRα efficacy” value in test [1] is reported as 914 (96) %. Also, the EC50 in test [1] (agonist mode) came out at 0.914 µM.
For `CC(C)[C@@H]1CN(c2ccc(C#N)c(S(C)(=O)=O)c2)CCN1C(=O)OC(C)(C)C` [Cpd No 3-1, tert-butyl (R)-4-(4-cyano-3-(methylsulfonyl)phenyl)-2-isopropylpiperazine-1-carboxylate], in that order: 18 µM, 76%, 12810 (20) % and 12.8 µM.
In the same order, the values of `CC(C)[C@@H]1CN(c2ccc(C(F)(F)F)c(S(C)(=O)=O)c2)CCN1C(=O)OC(C)(C)C` [Cpd No 3-2, tert-butyl (R)-2-isopropyl-4-(3-(methylsulfonyl)-4-(trifluoromethyl)phenyl)piperazine-1-carboxylate] are 12 µM, 54%, 14412 (19) % and 14.4 µM.
In the same order, the values of `Cc1cc(C)nc(N2CCN(c3cccc(S(C)(=O)=O)c3)C[C@H]2C(C)C)n1` [Cpd No 7-3, (R)-2-(2-isopropyl-4-(3-(methylsulfonyl)phenyl)piperazin-1-yl)-4,6-dimethylpyrimidine] are 0.51 µM, 36%, 7923 (24) % and 7.92 µM.

For the origin of these results see US10144715B2, “Piperazine derivatives as liver X receptor modulators” (priority 2014, dated 2018).
